# According to patent US20170368054A1, “Treatment of Glaucoma Using Laquinimod” (Teva Pharmaceutical Industries, Ltd., priority 2013, published 2017):
# Several values for one entry are separate records, joined by “and”; a condition that tells them apart may be missing. Equal values may be shown once. Entries after “also recorded” stand apart in the source; their conditions may differ.
# Legend:
# Brown Norway rats = details: rat, in vivo
# Protocol: Prior to any experimental procedure, clinical observations were performed daily, body weights were obtained, intraocular pressure (IOP) was measured and detailed ocular examinations were performed on both eyes.
# Clinical observations were performed daily according to Table 6 below:
# Animals were weighed weekly prior to initiation of dosing. The first day the rats are weighed was designated as Study Day 1, and the beginning of Study Week 1.
# Animals selected for the study were examined prior to the initial administration of the test or the control articles to ensure that both eyes were free of abnormality, damage, and disease. Both eyes were examined, scored and recorded prior to the initial dose administration using a hand held slit-lamp and a direct ophthalmoscope or the surgical microscope according to the Classification System for Grading Ocular Lesions as described in Table 7, and the Ocular Posterior Segment Scoring Scale of Table 8. Posterior segment examination was performed after topical application of Tropicamide in the conscious state, or after the rats are anesthetized with isoflorane inhalation. Only rats showing no signs of eye irritation, ocular defects, or preexisting corneal injury were used in the study. […]
# Both eyes were examined and scored at one week after the second HSI and on the day of euthanasia, for a total of two times. […]
# [1] = system: retinal ganglion cells (RGC); assay: Fluoro-Gold labeled RGC survival in rat hypertonic saline injection glaucoma model; type: in vivo, Brown Norway rats (Rattus norvegicus); details: for Mean % RGC Loss (100-(100 x OHT/Non-OHT Mean RGC Counts per Retina)): OHT vs non-OHT retina, 5 weeks after 2nd HSI, vehicle 34.8
# Excerpt: The purpose of this study was to assess the efficacy of laquinimod in protecting against chronic ocular hypertension (OHT) and RGC degeneration in a rat model of glaucoma, created by injecting hypertonic saline into the episcleral veins in one eye of the Brown Norway rat. In this model, RGC degeneration occurs in response to increased IOP and OHT similar to that in human patients with glaucoma. The rat model of chronic ocular hypertension (OHT)/glaucoma was created in the left eye of each animal via two hypertonic saline injections (HSI) each one week apart. The un-injected right eye served as the control. Throughout the study, the vehicle control and the test articles were prepared weekly. Rats were dosed once daily for oral administration (Group 5) and twice daily for topical administration groups (Groups 1-4), starting on the day of the first HSI until euthanasia. Detailed ocular examinations were performed one week after the 2nd HSI and on the day of euthanasia. […] Post-dose IOP was measured weekly for 5 weeks starting one week after the 2nd HSI until euthanasia. Animals were euthanized 5 weeks after the 2nd HSI. The retinas were flat-mounted, slide IDs were masked and 8 regions per retina were imaged using a confocal microscope. RGC at these regions were counted using the Image J software. After the optic nerves were extracted, they were plastic-embedded, sectioned and stained with Toluidine Blue at Schepens Eye Research Institute, Boston, Mass.. The injury in the optic nerves was evaluated and graded by microscopic examination in a masked fashion. Chronic ocular hypertension (OHT) was created through two hypertonic saline injections (HSI) which were performed one week apart in the left eye. For each HSI, after the rats were anesthetized with a suitable anesthetic, a suture thread was passed through the left eyelid to fix it open. A local anesthetic (e.g., 0.5% Proparacaine HCl Ophthalmic Solution) was applied on the surgery eye topically. The conjunctiva was incised with Vannas scissors to expose an episcleral vein. An occluder ring with a groove was fitted around the left eye to provide unobstructed passage for the selected episcleral vein while obstructing the other episcleral veins. Using a pulled-glass needle, 50-250 μL of 1.8 M hypertonic saline solution was injected into the exposed episcleral vein to scar the aqueous humor outflow pathway in an attempt to elevate IOP. The ring was removed shortly after the injection. The un-operated right eye served as the control. Ophthalmic ointment was applied to both eyes to prevent corneal damage. For each HSI procedure, buprenorphine was administered subcutaneously for approximately 24 hours to manage post-operative pains as appropriate. Clinical observations was performed at least once daily as described in Table 6. Approximately one week prior to euthanasia, RGC was labeled with the retrograde tracer FG. First, animals were sedated with appropriate anesthesia. […] Rats received subcutaneous injections of buprenorphine for approximately 48 hours to manage post-surgery pain as appropriate. The eyes were fixed in 4% paraformaldehyde (PFA) fixative at 4±2° C. for at least 24 hours. Retinas were dissected and flat whole-mounted for confocal visualization and imaging. The actual identification of the retinal flat-mounts was masked prior to confocal imaging. Eight regions per retina were imaged using a confocal microscope and the RGC in each region were counted as follows: Retinal images were evaluated by confocal fluorescence microscopic examination. A three-dimensional view of the x-axis, y-axis, and z-axis were designed and processed using a specific system of image analysis software (Leica Confocal Software) to obtain an image of the viable RGCs labeled with FG. Two areas which were approximately 1.5 mm and 2.75 mm away from the center of the ON head were selected in each retinal quadrant (8 regions per retina) and serial images of the retinal ganglion cell layer were taken by the Confocal Microscope. […]
structure (smiles),measurement,setting,value
CCN(C(=O)c1c(O)c2c(Cl)cccc2n(C)c1=O)c1ccccc1 [Laquinimod],"Weight gained between day of dosing and day of euthanasia, groups compared",Brown Norway rats,did not differ
same,"FG-Labeled RGC counts per mm2, OHT vs Non-OHT retinas, two-tailed paired-t test","[1]; Group 1, 1% Laquinimod topical, P=0.189",no statistically significant difference
same,Mean % RGC Loss (100-(100 x OHT/Non-OHT Mean RGC Counts per Retina)),"[1]; Group 1, topical 1% laquinimod twice daily",17.6±33.8% and 17.6%
same,"FG-Labeled RGC counts per mm2, OHT vs Non-OHT retinas, two-tailed paired-t test","[1]; Group 3, 4% Laquinimod topical, P=0.071",statistically marginally different
same,Mean % RGC Loss (100-(100 x OHT/Non-OHT Mean RGC Counts per Retina)),"[1]; Group 3, topical 4% laquinimod twice daily",26.8±36.4% and 26.8%
same,"FG-Labeled RGC counts per mm2, OHT vs Non-OHT retinas, two-tailed paired-t test","[1]; Group 4, 0.25% Laquinimod topical, P=0.033",fewer RGCs in the OHT eye
same,Mean % RGC Loss (100-(100 x OHT/Non-OHT Mean RGC Counts per Retina)),"[1]; Group 4, topical 0.25% laquinimod twice daily",21.6±21.7% and 21.6%
same,"FG-Labeled RGC counts per mm2, OHT vs Non-OHT retinas, two-tailed paired-t test","[1]; Group 5, 0.1% Laquinimod oral, P=0.075",statistically marginally different
same,Mean % RGC Loss (100-(100 x OHT/Non-OHT Mean RGC Counts per Retina)),"[1]; Group 5, oral 0.1% laquinimod once daily (1 mL)",22.9±33.1% and 22.9%
same,"RGC counts in OHT and Non-OHT eyes versus groups, Two-Way ANOVA eye versus group interaction","[1]; all groups (0.25%, 1%, 4% topical, 0.1% oral, vehicle), P=0.919",groups did not differ
same,Neuroprotection for the RGC (conclusion from RGC counts),"[1]; daily topical application of 1% Laquinimod, Group 1",may be neuroprotective; also recorded: trend towards neuroprotection
